Assays:
[1] = tested on: peach potato aphids (Myzus persicae); details: 500 ppm by weight; infested Chinese cabbage leaves sprayed; mortality assessed after three days
Experimental: This Example illustrates the pesticidal/insecticidal properties of compounds of formula (I). The activities of individual compounds of formula (I) were determined using a variety of pests. The pests were treated with a liquid composition containing 500 parts per million (ppm) by weight of a compound of formula (I). Each composition was made by dissolving the compound in an acetone and ethanol (50:50 by volume) mixture and diluting the solution with water containing 0.05% by volume of a wetting agent, SYNPERONIC NP8, until the liquid composition contained the required concentration of the compound.
(§1) The test procedure adopted with regard to each pest was essentially the same and comprised supporting a number of the pests on a medium, which was usually a substrate, a host plant or a foodstuff on which the pests feed, and treating either or both the medium and the pests with a composition. Pest mortality was assessed usually between two and five days after treatment.
In each test against peach potato aphids (Myzus persicae), Chinese cabbage leaves were infested with aphids, the infested leaves were sprayed with a test composition and pest mortality was assessed after three days.

[2] = tested on: fruit flies (Drosophila melanogaster); test: pesticidal test against fruit flies; details: liquid composition containing 500 ppm by weight of compound
Experimental: (§2) The activities of individual compounds of formula (I) were determined using a variety of pests. The pests were treated with a liquid composition containing 500 parts per million (ppm) by weight of a compound of formula (I). Each composition was made by dissolving the compound in an acetone and ethanol (50:50 by volume) mixture and diluting the solution with water containing 0.05% by volume of a wetting agent, SYNPERONIC NP8, until the liquid composition contained the required concentration of the compound.
as §1
(§3) Similar tests were conducted against, independently, two-spotted spider mites (Tetranychus urticae), fruit flies (Drosophila melanogaster), tobacco budworms (Heliothis virescens), diamond back moth (Plutella xylostella) and corn root worm (Diabrotica balteata).

[3] = tested on: corn root worm (Diabrotica balteata); test: pesticidal test against corn root worm; details: liquid composition containing 500 ppm by weight of compound
Experimental: as §2, §1, §3

[4] = tested on: tobacco budworms (Heliothis virescens); test: pesticidal test against tobacco budworms; details: liquid composition containing 500 ppm by weight of compound
Experimental: as §2, §1, §3

[5] = tested on: diamond back moth (Plutella xylostella); test: pesticidal test against diamond back moth; details: liquid composition containing 500 ppm by weight of compound
Experimental: as §2, §1, §3

Structure (SMILES) | mortality (score) Mp [1] | mortality (score) Dm [2] | mortality (score) Db [3] | mortality (score) Hv [4] | mortality (score) Px [5]
CCC(C(=O)Nc1snc(C)c1Cl)c1ccc2oc(C(F)(F)C(F)(F)C(F)(F)F)nc2c1 (stereo not drawn) [Table 2 Compound 10] | 5 (5 indicates 40-79% mortality) | 0 (represents less than 40% mortality) | 9 (9 indicates 80-100% mortality) | 9 (9 indicates 80-100% mortality) | 
CCOCN(C(=O)CCc1ccc2oc(CC(C)(C)C)nc2c1)c1snc(C)c1Cl [Table 82 Compound 77] | 9 (9 indicates 80-100% mortality) | 0 (represents less than 40% mortality) |  | 0 (represents less than 40% mortality) | 0 (represents less than 40% mortality)
CCc1nsc(NC(=O)C(C)c2ccc3oc(CC(C)C)nc3c2)c1Cl (stereo not drawn) [Table 1 Compound 86] | 9 (9 indicates 80-100% mortality) | 9 (9 indicates 80-100% mortality) | 9 (9 indicates 80-100% mortality) |  | 9 (9 indicates 80-100% mortality)
CCOCN(C(=O)C(C)c1ccc2oc(C(F)(F)C(F)(F)C(F)(F)F)nc2c1)c1snc(CC)c1Cl (stereo not drawn) [Table 1 Compound 160] | 9 (9 indicates 80-100% mortality) | 9 (9 indicates 80-100% mortality) | 9 (9 indicates 80-100% mortality) |  | 9 (9 indicates 80-100% mortality)
CCOCN(C(=O)C(C)c1ccc2oc(C(F)(F)C(F)(F)F)nc2c1)c1snc(CC)c1Cl (stereo not drawn) [Table 1 Compound 159] | 9 (9 indicates 80-100% mortality) | 9 (9 indicates 80-100% mortality) | 9 (9 indicates 80-100% mortality) |  | 9 (9 indicates 80-100% mortality)
CCOCN(C(=O)C(C)c1ccc2sc(CC(C)(C)C)nc2c1)c1snc(CC)c1Cl (stereo not drawn) [Table 39 Compound 157] | 9 (9 indicates 80-100% mortality) | 0 (represents less than 40% mortality) | 9 (9 indicates 80-100% mortality) | 9 (9 indicates 80-100% mortality) | 9 (9 indicates 80-100% mortality)
CCc1nsc(NC(=O)C(F)c2ccc3oc(CC(C)(C)C)nc3c2)c1Cl (stereo not drawn) [Table 5 Compound 87] | 9 (9 indicates 80-100% mortality) | 9 (9 indicates 80-100% mortality) |  | 9 (9 indicates 80-100% mortality) | 9 (9 indicates 80-100% mortality)
CCOCN(C(=O)C(C)c1ccc2oc(CC(C)C)nc2c1)c1snc(CC)c1Cl (stereo not drawn) [Table 1 Compound 156] | 9 (9 indicates 80-100% mortality) |  |  |  | 
CCc1nsc(NC(=O)C(C)c2ccc3oc(CC(F)(F)F)nc3c2)c1Cl (stereo not drawn) [Table 1 Compound 88] | 9 (9 indicates 80-100% mortality) | 0 (represents less than 40% mortality) | 9 (9 indicates 80-100% mortality) |  | 9 (9 indicates 80-100% mortality)
CCOCN(C(=O)C(C)c1ccc2oc(CC(C)(C)C)nc2c1)c1snc(C)c1Cl (stereo not drawn) [Table 1 Compound 77] | 9 (9 indicates 80-100% mortality) | 0 (represents less than 40% mortality) | 9 (9 indicates 80-100% mortality) | 9 (9 indicates 80-100% mortality) | 9 (9 indicates 80-100% mortality)
CCc1nsc(NC(=O)C(CC)c2ccc3oc(C(F)(F)C(F)(F)C(F)(F)F)nc3c2)c1Cl (stereo not drawn) [Table 2 Compound 90] | 0 (represents less than 40% mortality) | 0 (represents less than 40% mortality) | 0 (represents less than 40% mortality) | 9 (9 indicates 80-100% mortality) | 
Cc1nsc(NC(=O)C(F)c2ccc3oc(CC(C)C)nc3c2)c1Cl (stereo not drawn) [Table 5 Compound 6] | 9 (9 indicates 80-100% mortality) | 9 (9 indicates 80-100% mortality) | 9 (9 indicates 80-100% mortality) |  | 9 (9 indicates 80-100% mortality)
CCOCN(C(=O)C(F)c1ccc2oc(C(F)(F)C(F)(F)C(F)(F)F)nc2c1)c1snc(CC)c1Cl (stereo not drawn) [Table 5 Compound 160] | 9 (9 indicates 80-100% mortality) | 0 (represents less than 40% mortality) | 9 (9 indicates 80-100% mortality) |  | 9 (9 indicates 80-100% mortality)
CCOCN(C(=O)C(C)c1ccc2oc(CC(C)(C)C)nc2c1)c1snc(CC)c1Cl (stereo not drawn) [Table 1 Compound 157] | 9 (9 indicates 80-100% mortality) | 0 (represents less than 40% mortality) | 9 (9 indicates 80-100% mortality) | 9 (9 indicates 80-100% mortality) | 9 (9 indicates 80-100% mortality)
CCOCN(C(=O)C(C)c1ccc2oc(C(F)(F)C(F)(F)C(F)(F)F)nc2c1)c1snc(C)c1Cl (stereo not drawn) [Table 1 Compound 80] | 5 (5 indicates 40-79% mortality) | 0 (represents less than 40% mortality) | 9 (9 indicates 80-100% mortality) | 9 (9 indicates 80-100% mortality) | 9 (9 indicates 80-100% mortality)
CCOCN(C(=O)C(C)c1ccc2oc(CC(C)C)nc2c1)c1snc(C)c1Cl (stereo not drawn) [Table 1 Compound 76] | 9 (9 indicates 80-100% mortality) | 9 (9 indicates 80-100% mortality) | 9 (9 indicates 80-100% mortality) | 5 (5 indicates 40-79% mortality) | 9 (9 indicates 80-100% mortality)
CCOCN(C(=O)C(F)c1ccc2oc(CC(C)(C)C)nc2c1)c1snc(C)c1Cl (stereo not drawn) [Table 5 Compound 77] | 9 (9 indicates 80-100% mortality) | 0 (represents less than 40% mortality) | 9 (9 indicates 80-100% mortality) | 5 (5 indicates 40-79% mortality) | 9 (9 indicates 80-100% mortality)
CCc1nsc(NC(=O)C(C)c2ccc3oc(C(F)(F)C(F)(F)C(F)(F)F)nc3c2)c1Cl (stereo not drawn) [Table 1 Compound 90] | 0 (represents less than 40% mortality) | 0 (represents less than 40% mortality) | 9 (9 indicates 80-100% mortality) |  | 9 (9 indicates 80-100% mortality)
Cc1nsc(NC(=O)C(F)c2ccc3sc(CC(C)(C)C)nc3c2)c1Cl (stereo not drawn) [Table 42 Compound 7] | 9 (9 indicates 80-100% mortality) | 9 (9 indicates 80-100% mortality) | 9 (9 indicates 80-100% mortality) | 9 (9 indicates 80-100% mortality) | 5 (5 indicates 40-79% mortality)
CCc1nsc(NC(=O)C(C)c2ccc3sc(CC(C)(C)C)nc3c2)c1Cl (stereo not drawn) [Table 39 Compound 87] | 0 (represents less than 40% mortality) | 0 (represents less than 40% mortality) | 9 (9 indicates 80-100% mortality) | 9 (9 indicates 80-100% mortality) | 9 (9 indicates 80-100% mortality)
Cc1nsc(NC(=O)C(F)c2ccc3oc(C(F)(F)C(F)(F)C(F)(F)F)nc3c2)c1Cl (stereo not drawn) [Table 5 Compound 10] | 9 (9 indicates 80-100% mortality) | 9 (9 indicates 80-100% mortality) | 9 (9 indicates 80-100% mortality) | 9 (9 indicates 80-100% mortality) | 9 (9 indicates 80-100% mortality)
CCc1nsc(NC(=O)C(F)c2ccc3oc(CC(C)C)nc3c2)c1Cl (stereo not drawn) [Table 5 Compound 86] | 9 (9 indicates 80-100% mortality) | 9 (9 indicates 80-100% mortality) |  | 9 (9 indicates 80-100% mortality) | 9 (9 indicates 80-100% mortality)
CCc1nsc(NC(=O)C(C)c2ccc3oc(CC(C)(C)C)nc3c2)c1Cl (stereo not drawn) [Table 1 Compound 87] | 9 (9 indicates 80-100% mortality) | 9 (9 indicates 80-100% mortality) | 9 (9 indicates 80-100% mortality) |  | 9 (9 indicates 80-100% mortality)
CCc1nsc(NC(=O)C(F)c2ccc3oc(C(F)(F)C(F)(F)C(F)(F)F)nc3c2)c1Cl (stereo not drawn) [Table 5 Compound 90] | 9 (9 indicates 80-100% mortality) | 9 (9 indicates 80-100% mortality) | 9 (9 indicates 80-100% mortality) |  | 9 (9 indicates 80-100% mortality)
CCc1nsc(NC(=O)C(C)c2ccc3oc(C)nc3c2)c1Cl (stereo not drawn) [Table 1 Compound 81] | 9 (9 indicates 80-100% mortality) | 9 (9 indicates 80-100% mortality) | 9 (9 indicates 80-100% mortality) |  | 9 (9 indicates 80-100% mortality)
Cc1nsc(NC(=O)C(C)c2ccc3oc(CC(C)C)nc3c2)c1Cl (stereo not drawn) [Table 1 Compound 6] | 0 (represents less than 40% mortality) | 0 (represents less than 40% mortality) | 9 (9 indicates 80-100% mortality) |  | 9 (9 indicates 80-100% mortality)
CCOCN(C(=O)C(C)c1ccc2sc(CC(C)C)nc2c1)c1snc(CC)c1Cl (stereo not drawn) [Table 39 Compound 156] | 9 (9 indicates 80-100% mortality) | 0 (represents less than 40% mortality) |  | 9 (9 indicates 80-100% mortality) | 9 (9 indicates 80-100% mortality)

— US6703347B2, “Isothiazole derivatives and their use as pesticides” (Syngenta Limited, priority 2000, dated 2004)
